Experimental data as given in patent US11174252B2, “Heterocyclic compounds as kinase inhibitors” (priority 2018, dated 2021).
Where two headings read alike, the source gives them in different places.

Key:
[1] = target: CDK7 (cyclin H) (Homo sapiens (Human), UniProt P50613); assay: Adapta Assay; assay type: biochemical
Source text: The following equations were used for Adapta™ Assay Data Analysis.

[2] = system: MCF-7; assay: Cancer cell proliferation assay, single agent; assay type: cell-based; details: Homo sapiens
[3] = target: CDK1 (cyclin B) (Homo sapiens (Human), UniProt P06493); assay: Z'-LYTE kinase assay; assay type: biochemical
Sequence of CDK1 (cyclin B) (P06493 whole entry): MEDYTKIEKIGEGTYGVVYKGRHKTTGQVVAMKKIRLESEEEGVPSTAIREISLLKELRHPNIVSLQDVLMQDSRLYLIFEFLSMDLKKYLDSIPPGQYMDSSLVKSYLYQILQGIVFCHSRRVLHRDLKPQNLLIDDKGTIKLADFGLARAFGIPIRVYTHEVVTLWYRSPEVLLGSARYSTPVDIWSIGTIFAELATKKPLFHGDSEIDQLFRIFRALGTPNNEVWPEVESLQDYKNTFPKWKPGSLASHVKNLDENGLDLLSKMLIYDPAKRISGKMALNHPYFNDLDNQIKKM
Sequence of CDK1 (cyclin B) (P14635 whole entry partner): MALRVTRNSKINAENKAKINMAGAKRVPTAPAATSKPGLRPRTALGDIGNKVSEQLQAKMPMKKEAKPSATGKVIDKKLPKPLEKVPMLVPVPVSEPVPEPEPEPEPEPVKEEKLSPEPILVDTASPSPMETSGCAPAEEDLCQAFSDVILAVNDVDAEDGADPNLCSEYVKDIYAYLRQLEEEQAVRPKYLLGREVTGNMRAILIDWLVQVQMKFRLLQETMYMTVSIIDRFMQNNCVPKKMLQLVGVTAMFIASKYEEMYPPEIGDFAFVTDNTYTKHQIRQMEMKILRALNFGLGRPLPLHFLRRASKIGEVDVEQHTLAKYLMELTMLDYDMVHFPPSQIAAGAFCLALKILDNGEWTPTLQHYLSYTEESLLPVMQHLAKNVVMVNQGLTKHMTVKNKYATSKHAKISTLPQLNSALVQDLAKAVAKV
Source text: The following equations were used for Z′-LYTE™ Screening Assay Data Analysis.

[4] = target: CDK5 (p25) (Homo sapiens (Human), UniProt Q00535); assay: Z'-LYTE kinase assay; assay type: biochemical
Source text: The following equations were used for Z'-LYTETM Screening Assay Data Analysis.

[5] = target: FMS kinase (Homo sapiens (Human), UniProt P07333); assay: LanthaScreen kinase assay (ATP, fluorescent-PolyGT substrate, TR-FRET); assay type: biochemical
Sequence of FMS kinase (P07333 20-972): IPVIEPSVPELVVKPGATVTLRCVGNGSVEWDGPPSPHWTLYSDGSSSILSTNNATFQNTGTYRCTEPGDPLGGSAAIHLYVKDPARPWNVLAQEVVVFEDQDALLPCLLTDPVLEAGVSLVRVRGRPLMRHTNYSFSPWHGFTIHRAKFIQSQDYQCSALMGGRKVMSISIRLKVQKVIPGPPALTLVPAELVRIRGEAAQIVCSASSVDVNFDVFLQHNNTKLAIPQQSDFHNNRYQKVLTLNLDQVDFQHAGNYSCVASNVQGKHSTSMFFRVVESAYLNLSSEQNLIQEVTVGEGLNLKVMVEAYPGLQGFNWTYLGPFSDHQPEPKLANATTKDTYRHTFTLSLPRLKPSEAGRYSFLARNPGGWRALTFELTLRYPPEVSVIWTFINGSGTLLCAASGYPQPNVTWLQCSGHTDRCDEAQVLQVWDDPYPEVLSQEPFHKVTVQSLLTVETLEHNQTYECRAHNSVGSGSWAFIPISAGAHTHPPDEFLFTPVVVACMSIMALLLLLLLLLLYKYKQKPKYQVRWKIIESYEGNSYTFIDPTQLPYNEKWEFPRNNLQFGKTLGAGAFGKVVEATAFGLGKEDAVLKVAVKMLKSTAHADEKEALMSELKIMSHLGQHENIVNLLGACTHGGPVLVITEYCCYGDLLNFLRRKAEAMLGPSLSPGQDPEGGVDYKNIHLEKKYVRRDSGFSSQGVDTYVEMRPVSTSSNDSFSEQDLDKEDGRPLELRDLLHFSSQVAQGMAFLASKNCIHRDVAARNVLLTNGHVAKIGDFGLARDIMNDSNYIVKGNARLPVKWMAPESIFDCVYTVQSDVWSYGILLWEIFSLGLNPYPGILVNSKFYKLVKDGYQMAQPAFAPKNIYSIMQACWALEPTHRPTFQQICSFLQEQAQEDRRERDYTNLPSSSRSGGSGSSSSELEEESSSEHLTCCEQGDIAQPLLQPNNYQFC

[6] = target: CDK2 (cyclin A) (Homo sapiens (Human), UniProt P24941); assay: Z'-LYTE kinase assay; assay type: biochemical
Experimental: IC50 values of compounds against CDK2 (cyclin A) were determined by Z'-LYTETM. […] The following equations were used for Z'-LYTETM Screening Assay Data Analysis.

[7] = target: PI3Kδ kinase (Homo sapiens (Human), UniProt O00329); assay: PI3Kδ kinase ADP-Glo assay (Reaction Biology Corporation); details: read-out: PI3Kδ IC50
Sequence of PI3Kδ kinase (O00329 whole entry): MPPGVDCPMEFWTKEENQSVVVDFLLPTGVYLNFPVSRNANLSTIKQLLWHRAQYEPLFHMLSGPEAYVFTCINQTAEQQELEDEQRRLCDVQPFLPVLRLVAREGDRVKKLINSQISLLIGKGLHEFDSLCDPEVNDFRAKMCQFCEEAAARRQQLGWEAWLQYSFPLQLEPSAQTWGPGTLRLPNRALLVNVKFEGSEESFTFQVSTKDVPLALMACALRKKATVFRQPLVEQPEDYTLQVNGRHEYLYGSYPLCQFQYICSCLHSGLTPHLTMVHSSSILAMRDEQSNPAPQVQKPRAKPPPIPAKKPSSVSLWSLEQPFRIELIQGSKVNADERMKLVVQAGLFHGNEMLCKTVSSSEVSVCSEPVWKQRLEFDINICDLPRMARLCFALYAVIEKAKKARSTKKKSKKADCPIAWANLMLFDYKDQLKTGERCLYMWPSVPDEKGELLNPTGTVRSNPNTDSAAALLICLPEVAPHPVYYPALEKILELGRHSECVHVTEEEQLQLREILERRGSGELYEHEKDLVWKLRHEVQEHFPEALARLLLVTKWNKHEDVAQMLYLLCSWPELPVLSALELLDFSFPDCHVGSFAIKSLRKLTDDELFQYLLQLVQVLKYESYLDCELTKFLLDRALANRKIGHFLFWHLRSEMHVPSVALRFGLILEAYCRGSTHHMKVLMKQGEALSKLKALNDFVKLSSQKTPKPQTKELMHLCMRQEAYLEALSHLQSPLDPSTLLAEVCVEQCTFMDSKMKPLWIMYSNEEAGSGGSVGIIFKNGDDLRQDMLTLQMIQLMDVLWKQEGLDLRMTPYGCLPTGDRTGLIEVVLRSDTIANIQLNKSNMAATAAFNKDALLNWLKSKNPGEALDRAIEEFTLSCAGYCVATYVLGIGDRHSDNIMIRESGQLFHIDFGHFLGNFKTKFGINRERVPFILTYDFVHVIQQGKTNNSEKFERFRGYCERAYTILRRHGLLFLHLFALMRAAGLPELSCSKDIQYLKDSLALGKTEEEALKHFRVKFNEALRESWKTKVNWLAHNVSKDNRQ
Sequence of PI3Kδ kinase (P27986 whole entry partner): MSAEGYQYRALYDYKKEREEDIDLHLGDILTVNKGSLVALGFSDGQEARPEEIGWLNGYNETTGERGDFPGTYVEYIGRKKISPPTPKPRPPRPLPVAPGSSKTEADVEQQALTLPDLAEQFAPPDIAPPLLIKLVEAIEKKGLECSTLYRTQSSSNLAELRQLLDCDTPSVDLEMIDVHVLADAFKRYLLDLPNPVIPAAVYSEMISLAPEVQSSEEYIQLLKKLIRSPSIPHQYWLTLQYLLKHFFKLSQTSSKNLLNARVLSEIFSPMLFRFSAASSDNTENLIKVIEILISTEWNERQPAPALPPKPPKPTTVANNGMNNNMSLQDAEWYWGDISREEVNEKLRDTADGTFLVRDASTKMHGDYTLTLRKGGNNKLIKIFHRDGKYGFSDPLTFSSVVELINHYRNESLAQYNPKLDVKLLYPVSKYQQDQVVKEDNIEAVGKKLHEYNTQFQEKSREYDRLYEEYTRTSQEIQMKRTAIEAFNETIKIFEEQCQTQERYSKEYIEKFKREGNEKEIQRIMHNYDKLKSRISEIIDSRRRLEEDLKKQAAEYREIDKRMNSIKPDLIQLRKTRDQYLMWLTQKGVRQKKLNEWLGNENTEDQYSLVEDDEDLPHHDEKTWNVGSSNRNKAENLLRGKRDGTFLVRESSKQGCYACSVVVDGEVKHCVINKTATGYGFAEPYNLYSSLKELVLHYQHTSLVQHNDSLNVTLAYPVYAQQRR

[8] = target: CDK4 (Homo sapiens (Human), UniProt P11802); assay: In vitro kinase inhibition, luminescence (ADP-Glo) with retinoblastoma substrate; assay type: biochemical
Sequence of CDK4 (P11802 whole entry): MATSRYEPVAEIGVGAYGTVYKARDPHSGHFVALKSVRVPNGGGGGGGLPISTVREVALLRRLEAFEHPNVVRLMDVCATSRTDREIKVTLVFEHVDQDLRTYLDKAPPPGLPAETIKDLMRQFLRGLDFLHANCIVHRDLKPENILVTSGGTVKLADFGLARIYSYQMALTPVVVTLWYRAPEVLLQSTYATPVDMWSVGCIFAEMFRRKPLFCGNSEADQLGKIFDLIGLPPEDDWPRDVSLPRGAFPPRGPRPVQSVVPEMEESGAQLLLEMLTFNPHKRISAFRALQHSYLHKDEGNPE
Sequence of CDK4 (P24385 whole entry partner): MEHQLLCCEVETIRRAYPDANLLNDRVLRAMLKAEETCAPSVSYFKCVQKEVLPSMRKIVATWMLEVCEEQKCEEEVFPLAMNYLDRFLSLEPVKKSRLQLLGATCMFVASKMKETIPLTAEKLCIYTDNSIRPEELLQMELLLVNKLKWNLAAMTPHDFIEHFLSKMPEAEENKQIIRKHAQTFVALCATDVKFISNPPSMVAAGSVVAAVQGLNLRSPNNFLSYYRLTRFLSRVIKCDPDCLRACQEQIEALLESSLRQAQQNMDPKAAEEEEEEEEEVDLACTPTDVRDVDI

[9] = target: CDK6 (Homo sapiens (Human), UniProt Q00534); assay: biochemical; assay type: biochemical
[10] = system: DU4475; assay: Cancer cell proliferation assay, single agent; assay type: cell-based; details: Homo sapiens
[11] = target: CDK9 (cyclin K) (Homo sapiens (Human), UniProt P50750); assay: LanthaScreen Eu Kinase Binding Assay; details: read-out: CDK9/K IC50
Sequence of CDK9 (cyclin K) (P50750 whole entry): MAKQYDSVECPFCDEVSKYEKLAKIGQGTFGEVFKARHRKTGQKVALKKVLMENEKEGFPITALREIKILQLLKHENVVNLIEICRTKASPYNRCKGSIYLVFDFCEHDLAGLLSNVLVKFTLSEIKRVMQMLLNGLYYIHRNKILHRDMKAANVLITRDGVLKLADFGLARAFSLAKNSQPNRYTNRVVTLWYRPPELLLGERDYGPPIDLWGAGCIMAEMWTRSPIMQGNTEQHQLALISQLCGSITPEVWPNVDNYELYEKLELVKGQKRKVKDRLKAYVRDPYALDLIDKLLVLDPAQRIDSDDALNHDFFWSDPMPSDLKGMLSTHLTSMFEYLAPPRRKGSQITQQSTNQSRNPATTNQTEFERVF
Sequence of CDK9 (cyclin K) (O75909 whole entry partner): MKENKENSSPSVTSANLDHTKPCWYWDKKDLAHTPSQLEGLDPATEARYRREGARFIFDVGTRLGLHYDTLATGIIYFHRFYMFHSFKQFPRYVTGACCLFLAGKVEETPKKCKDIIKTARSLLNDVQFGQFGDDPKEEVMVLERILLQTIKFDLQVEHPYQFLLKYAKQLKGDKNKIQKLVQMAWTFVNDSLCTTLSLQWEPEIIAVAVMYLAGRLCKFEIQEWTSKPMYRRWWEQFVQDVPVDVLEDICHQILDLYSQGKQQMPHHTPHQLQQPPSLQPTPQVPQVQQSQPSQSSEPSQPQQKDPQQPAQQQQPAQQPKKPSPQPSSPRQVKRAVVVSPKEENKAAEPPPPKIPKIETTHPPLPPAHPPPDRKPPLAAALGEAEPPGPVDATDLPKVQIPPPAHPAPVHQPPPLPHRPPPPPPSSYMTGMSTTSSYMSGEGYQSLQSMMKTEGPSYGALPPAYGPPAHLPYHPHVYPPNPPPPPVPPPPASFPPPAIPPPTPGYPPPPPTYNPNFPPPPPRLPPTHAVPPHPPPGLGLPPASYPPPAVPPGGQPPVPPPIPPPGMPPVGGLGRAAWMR

[12] = system: BT-549; assay: Cancer cell proliferation assay, single agent; assay type: cell-based; details: Homo sapiens; BT-549 cells; treated for 24-168 hours; read-out: IC50 (nM) BT-549
[13] = system: A549; assay: Cancer cell proliferation assay, single agent; assay type: cell-based; details: Homo sapiens; A549 cells; treated for 24-168 hours; read-out: IC50 (nM) A549
[14] = MCF7, MCF-7 cells, treated for 24-168 hours, read-out: IC50 (nM) MCF-7
[15] = DU-4475, DU4475 cells, treated for 24-168 hours, read-out: IC50 (nM) DU4475
[16] = DU-4475, read-out: IC50 (nM) DU4475
[17] = MCF7, read-out: IC50 (nM) MCF-7

Row | IC50 [1] [nM] | IC50 [2, 14] [nM] | IC50 [3] [nM] | IC50 [4] [nM] | IC50 [5] [nM] | IC50 [6] [nM] | IC50 [7] [µM] | IC50 [8] [nM] | IC50 [9] [nM] | IC50 [10, 15] [nM] | IC50 [11] [nM] | IC50 [12] [nM] | SMILES | IC50 [10, 16] [nM] | IC50 [2, 17] [nM] | IC50 [13] [nM]
1 | 85 | 45 | 9 | 7.7 | 3 | 3 | – | – | – | – | – | – | CC(C)N1CCOc2c(F)cc(-c3nc(Nc4ccn(C5CCNCC5)c(=O)c4)ncc3F)cc21 [Compound 437, 4-((5-fluoro-4-(8-fluoro-4-isopropyl-3,4-dihydro-2H-benzo[b][1,4]oxazin-6-yl)pyrimidin-2-yl)amino)-1-(piperidin-4-yl)pyridin-2(1H)-one] | – | – | –
2 | – | < 4 | < 1 | – | 4 | < 1 | 19.5 | 4 | 3.5 | – | – | – | CC(C)N1CCOc2c(F)cc(-c3nc(Nc4ccc5c(c4)CCN(C(=O)CN(C)C)C5)ncc3F)cc21 [Compound 456, 2-(dimethylamino)-1-(6-((5-fluoro-4-(8-fluoro-4-isopropyl-3,4-dihydro-2H-benzo[b][1,4]oxazin-6-yl)pyrimidin-2-yl)amino)-3,4-dihydroisoquinolin-2(1H)-yl)ethan-1-one] | – | – | –
3 | – | 85 | 69 | – | 426 | 24 | > 20 | – | – | 345 | – | – | CC(C)N1CCOc2c(F)cc(-c3nc(Nc4ccc5c(n4)CCNC5)ncc3F)cc21 [Compound 481, N-(5-fluoro-4-(8-fluoro-4-isopropyl-3,4-dihydro-2H-benzo[b][1,4]oxazin-6-yl)pyrimidin-2-yl)-5,6,7,8-tetrahydro-1,6-naphthyridin-2-amine] | – | – | –
4 | 145 | 25 | 6.7 | 3.6 | 5 | 3.4 | 6.1 | – | – | 46 | 5 | < 1110 | CC(C)N1CCOc2c(F)cc(-c3nc(Nc4ccc(N5CCC(N(C)C)CC5)c(F)c4)ncc3F)cc21 [Compound 25, N-(4-(4-(dimethylamino)piperidin-1-yl)-3-fluorophenyl)-5-fluoro-4-(8-fluoro-4-isopropyl-3,4-dihydro-2H-benzo[b][1,4]oxazin-6-yl)pyrimidin-2-amine] | – | – | –
5 | > 10000 | 850 | 679 | – | 1120 | 68 | 21.8 | 3.9 | 8.8 | 385 | 280 | – | CC(C)N1CCOc2c(F)cc(-c3nc(Nc4ccc(N5CCOCC5)cn4)ncc3F)cc21 [Compound 446, 5-fluoro-4-(8-fluoro-4-isopropyl-3,4-dihydro-2H-benzo[b][1,4]oxazin-6-yl)-N-(5-morpholinopyridin-2-yl)pyrimidin-2-amine] | – | – | –
6 | 163 | 20 | 3 | – | 40 | – | – | – | – | 45 | – | – | CC(C)N1CCOc2c(F)cc(-c3nc(Nc4ccc(N5CCC(N(C)C)CC5)nc4)ncc3F)cc21 [Compound 38, N-(6-(4-(dimethylamino)piperidin-1-yl)pyridin-3-yl)-5-fluoro-4-(8-fluoro-4-isopropyl-3,4-dihydro-2H-benzo[b][1,4]oxazin-6-yl)pyrimidin-2-amine] | – | – | –
7 | > 10000 | 300 | 238 | – | 1680 | 36 | > 50 | 1.1 | 1.6 | 230 | 243 | – | CC(C)N1CCOc2c(F)cc(-c3nc(Nc4ccc(N5CCC(O)CC5)cn4)ncc3F)cc21 [Compound 447, 1-(6-((5-fluoro-4-(8-fluoro-4-isopropyl-3,4-dihydro-2H-benzo[b][1,4]oxazin-6-yl)pyrimidin-2-yl)amino)pyridin-3-yl)piperidin-4-ol] | – | – | –
8 | 1160 | 125 | 73 | 27 | 353 | 7 | > 50 | 2 | 1 | 503 | 41 | – | CC(C)N1CCOc2c(F)cc(-c3nc(Nc4ccc(C5CCN(C)CC5)cn4)ncc3F)cc21 [Compound 442, 5-fluoro-4-(8-fluoro-4-isopropyl-3,4-dihydro-2H-benzo[b][1,4]oxazin-6-yl)-N-(5-(1-methylpiperidin-4-yl)pyridin-2-yl)pyrimidin-2-amine] | – | – | 465
9 | – | 170 | 223 | – | – | 155 | – | 1 | 3 | 465 | – | – | CC(C)N1CCOc2c(F)cc(-c3nc(Nc4ccc(C5CCN(C)C5)cn4)ncc3F)cc21 (stereo not drawn) [Compound 498, 5-fluoro-4-(8-fluoro-4-isopropyl-3,4-dihydro-2H-benzo[b][1,4]oxazin-6-yl)-N-(5-(1-methylpyrrolidin-3-yl)pyridin-2-yl)pyrimidin-2-amine] | – | – | –

Row | SMILES | IC50 [1] [nM] | IC50 [2, 14] [nM] | IC50 [3] [nM] | IC50 [4] [nM] | IC50 [5] [nM] | IC50 [6] [nM] | IC50 [7] [µM] | IC50 [8] [nM] | IC50 [9] [nM] | IC50 [10, 15] [nM] | IC50 [11] [nM] | IC50 [12] [nM] | IC50 [10, 16] [nM] | IC50 [2, 17] [nM] | IC50 [13] [nM]
10 | CC(C)N1CCOc2c(F)cc(-c3nc(Nc4ccc(C5CCN(C)CC5)nc4)ncc3F)cc21 [Compound 33, 5-fluoro-4-(8-fluoro-4-isopropyl-3,4-dihydro-2H-benzo[b][1,4]oxazin-6-yl)-N-(6-(1-methylpiperidin-4-yl)pyridin-3-yl)pyrimidin-2-amine] | 54 | < 14 | 3 | 1 | 48 | 2 | – | 1.5 | 1.5 | – | 2 | – | 40 | – | –
11 | CCN1CCN(Cc2ccc(Nc3ncc(F)c(-c4cc(F)c5c(c4)N(C(C)C)CCO5)n3)nc2)CC1 [Compound 4, N-(5-((4-ethylpiperazin-1-yl)methyl)pyridin-2-yl)-5-fluoro-4-(8-fluoro-4-isopropyl-3,4-dihydro-2H-benzo[b][1,4]oxazin-6-yl)pyrimidin-2-amine] | – | – | 130 | – | 566 | 12 | > 5 | – | – | – | – | – | – | 110 | –
12 | CC(C)CN1CCOc2c(F)cc(-c3nc(Nc4ccc5c(n4)CCNC5)ncc3F)cc21 [Compound 483, N-(5-fluoro-4-(8-fluoro-4-isobutyl-3,4-dihydro-2H-benzo[b][1,4]oxazin-6-yl)pyrimidin-2-yl)-5,6,7,8-tetrahydro-1,6-naphthyridin-2-amine] | – | – | 181 | – | > 5000 | 44 | > 50 | 25 | 20 | – | – | – | 665 | 460 | –
13 | Fc1cnc(Nc2ccc(N3CCCNCC3)cn2)nc1-c1cc(F)c2c(c1)N(C1CCCC1)CCO2 [Compound 478, N-(5-(1,4-diazepan-1-yl)pyridin-2-yl)-4-(4-cyclopentyl-8-fluoro-3,4-dihydro-2H-benzo[b][1,4]oxazin-6-yl)-5-fluoropyrimidin-2-amine] | – | – | 453 | – | 2220 | 97 | 33.7 | 9 | 27 | – | – | – | 1680 | 665 | –
14 | CC(C)N1CCOc2c(F)cc(-c3nc(Nc4ccc(N5CCCNCC5)cn4)ncc3F)cc21 [Compound 477, N-(5-(1,4-diazepan-1-yl)pyridin-2-yl)-5-fluoro-4-(8-fluoro-4-isopropyl-3,4-dihydro-2H-benzo[b][1,4]oxazin-6-yl)pyrimidin-2-amine] | – | – | 158 | – | 752 | 25 | > 50 | – | – | – | – | – | 1100 | 280 | –
15 | CC(C)N1CCOc2c(F)cc(-c3nc(Nc4ccc(N5CCC(N(C)C)CC5)cn4)ncc3F)cc21 [Compound 436, N-(5-(4-(dimethylamino)piperidin-1-yl)pyridin-2-yl)-5-fluoro-4-(8-fluoro-4-isopropyl-3,4-dihydro-2H-benzo[b][1,4]oxazin-6-yl)pyrimidin-2-amine] | 2360 | 165 | 82 | 38 | > 5000 | 8 | – | – | – | 383 | 73 | – | – | – | 390
16 | Fc1cnc(Nc2ccc3c(n2)CCNC3)nc1-c1cc(F)c2c(c1)N(C1CCC1)CCO2 [Compound 482, N-(4-(4-cyclobutyl-8-fluoro-3,4-dihydro-2H-benzo[b][1,4]oxazin-6-yl)-5-fluoropyrimidin-2-yl)-5,6,7,8-tetrahydro-1,6-naphthyridin-2-amine] | – | – | 155 | – | 1750 | 29 | > 50 | 3 | 16 | – | – | – | 540 | 230 | –
